According to patent US5262417A, “Antibacterial quinolone compounds” (The Upjohn Company, priority 1991, dated 1993):
Converted amounts (≈) assume the structure as drawn. Where two headings read alike, the source gives them in different places.

How the values were obtained:
Assay in all cases: Minimum inhibitory concentration (MIC) by agar dilution
Assay type in all cases: cell-based
Enterobacter cloacae = conditions: UC9382, 20 h, E. cloacae UC 9382, Table CI, read-out: Minimum Inhibitory Concentration
Protocol: (§1) Briefly, MIC values are determined in unsupplemented Mueller Hinton Agar (MHA). The compounds tested are diluted serially into molten MHA at 47° C. The agar is poured into petri dishes and allowed to harden. The various bacteria used for testing are grown overnight on MHA at 35° C. and transferred to Trypticase soy broth (TSB) until a turbidity of 0.5 McFarland standard is obtained. The bacteria are diluted one to 20 in TSB and inoculated on the plates (1 μl using a Steers replicator).
as §1, with “Compounds of this invention can also be tested for in vitro antimicrobial activity using standard testing procedures such as the determination of minimum inhibitory concentration (MIC) by agar dilution as described in "Methods for Dilution Antimicrobial Susceptibility Tests for Bacteria That Grow Aerobically" (MFT) published Jan. […] Briefly,” for “Briefly,”, “(1μl” for “(1 μl”

[1] = tested on: Staphylococcus epidermidis; conditions: 20 h, S. epidermidis 30031, Table CI, read-out: Minimum Inhibitory Concentration
Protocol: as §1, with “The antibacterial activity of the compounds of Formula IC was determined by using standard testing procedures such as the determination of minimum inhibitory concentration (MIC) by agar dilution as described in "Methods for Dilution Antimicrobial Susceptibility Tests for Bacteria That Grow Aerobically" (MFT) published January 1983 by the National Committee for Clinical Laboratory Standards, 771 East Lancaster Avenue, Villanova, Pa. 19084, USA. Briefly,” for “Briefly,”
(§2) Compounds of this invention can also be tested for in vitro antimicrobial activity using standard testing procedures such as the determination of minimum inhibitory concentration (MIC) by agar dilution as described in "Methods for Dilution Antimicrobial Susceptibility Tests for Bacteria That Grow Aerobically" (MFT) published Jan. 1983 by the National Committee for Clinical Laboratory Standards, 771 East Lancaster Avenue, Villanova, Penna. 19084, USA. Briefly, MIC values are determined in unsupplemented Mueller Hinton Agar (MHA). The compounds tested are diluted serially into molten MHA at 47° C. The agar is poured into petri dishes and allowed to harden. The various bacteria used for testing are grown overnight on MHA at 35° C. and transferred to Trypticase soy broth (TSB) until a turbidity of 0.5 McFarland standard is obtained. The bacteria are diluted one to 20 in TSB and inoculated on the plates (1μl using a Steers replicator). […] The MIC test results of selected of Formula B compounds of this invention are found in Tables B2-B9.

Proteus penneri = conditions: Proteus penneri, UC9679, 20 h; P. penneri UC 9679, Table CI; read-out: Minimum Inhibitory Concentration
Protocol: (§3) The antibacterial activity of the compounds of Formula IC was determined by using standard testing procedures such as the determination of minimum inhibitory concentration (MIC) by agar dilution as described in "Methods for Dilution Antimicrobial Susceptibility Tests for Bacteria That Grow Aerobically" (MFT) published January 1983 by the National Committee for Clinical Laboratory Standards, 771 East Lancaster Avenue, Villanova, Pa. 19084, USA. Briefly, MIC values are determined in unsupplemented Mueller Hinton Agar (MHA). The compounds tested are diluted serially into molten MHA at 47° C. The agar is poured into petri dishes and allowed to harden. The various bacteria used for testing are grown overnight on MHA at 35° C. and transferred to Trypticase soy broth (TSB) until a turbidity of 0.5 McFarland standard is obtained. The bacteria are diluted one to 20 in TSB and inoculated on the plates (1 μl using a Steers replicator).
as §2

Pseudomonas aeruginosa = conditions: Pseudomonas aeruginosa, read-out: Minimum Inhibitory Concentration
Protocol: as §3, §2

[2] = tested on: Acinetobacter calcoaceticus; conditions: Acinetobacter calcoaceticus, UC12170, 20 h; A. calcoaceticus UC 12170, Table CI; read-out: Minimum Inhibitory Concentration
Protocol: as §3, §2

Staphylococcus aureus = conditions: Staphylococcus aureus, read-out: Minimum Inhibitory Concentration
Protocol: as §3, §2

Klebsiella pneumoniae = conditions: UC12081, 20 h, K. pneumoniae UC 12081, Table CI, read-out: Minimum Inhibitory Concentration
Protocol: as §3, §2

Streptococcus pyogenes = conditions: Streptococcus pyogenes, UC152, 20 h; S. pyogenes UC 152, Table CI; read-out: Minimum Inhibitory Concentration
Protocol: as §3, §2

Citerobacter freundii = conditions: Citrobacter freundii, UC3507, 20 h; C. freundii UC 3507, Table CI; read-out: Minimum Inhibitory Concentration
Protocol: as §3, §2

Streptococcus faecalis = conditions: Enterococcus faecalis, UC9217, 20 h; S. faecalis UC 9217, Table CI; read-out: Minimum Inhibitory Concentration
Protocol: as §3, §2

Serratia marcescens = conditions: 20 h, S. marcescens, UC number not given, Table CI, read-out: Minimum Inhibitory Concentration
Protocol: as §3, §2

Streptococcus pneumoniae = conditions: Streptococcus pneumoniae, UC41, 20 h; S. pneumoniae UC 41, Table CI; read-out: Minimum Inhibitory Concentration
Protocol: as §3, §2

Escherichia coli = conditions: Escherichia coli, read-out: Minimum Inhibitory Concentration
Protocol: as §3, §2

[3] = UC6676, 20 h, Ps. aeruginosa UC 6676, Table CI
[4] = UC9191, 20 h, Ps. aeruginosa UC 9191, Table CI
[5] = UC12120, 20 h, Ps. aeruginosa UC 12120, Table CI
[6] = UC6685, 20 h, S. aureus UC 6685, Table CI
[7] = UC9213, 20 h, S. aureus UC 9213, Table CI
[8] = UC9218, 20 h, S. aureus UC 9218, Table CI
[9] = UC9271, 20 h, S. aureus UC 9271, Table CI
[10] = UC6674, 20 h, E. coli UC 6674, Table CI
[11] = UC9451, 20 h, E. coli UC 9451, Table CI
[12] = UC9855, 20 h, E. coli UC 9855, Table CI
[13] = UC9952, 20 h, E. coli UC 9952, Table CI

Row | SMILES | MIC (Enterobacter cloacae) | MIC [1] | MIC (Proteus penneri) | MIC (Pseudomonas aeruginosa; [3]) | MIC (Pseudomonas aeruginosa; [4]) | MIC (Pseudomonas aeruginosa; [5]) | MIC [2] | MIC (Staphylococcus aureus; [6]) | MIC (Staphylococcus aureus; [7]) | MIC (Staphylococcus aureus; [8]) | MIC (Staphylococcus aureus; [9]) | MIC (Klebsiella pneumoniae) | MIC (Streptococcus pyogenes) | MIC (Citerobacter freundii) | MIC (Streptococcus faecalis) | MIC (Serratia marcescens) | MIC (Streptococcus pneumoniae) | MIC (Escherichia coli; [10]) | MIC (Escherichia coli; [11]) | MIC (Escherichia coli; [12]) | also measured
1 | C#CC(C)(C)n1cc(C(=O)O)c(=O)c2cc(F)c(N3CCC(N)C3)c(F)c21 (racemic) [B] | 0.25 µg/mL (≈ 0.666 µM) | 0.25 µg/mL (≈ 0.666 µM) | 1 µg/mL (≈ 2.66 µM) | 2 µg/mL (≈ 5.33 µM) | 2 µg/mL (≈ 5.33 µM) | 1 µg/mL (≈ 2.66 µM) | 0.5 µg/mL (≈ 1.33 µM) | 0.25 µg/mL (≈ 0.666 µM) | 0.5 µg/mL (≈ 1.33 µM) | 0.5 µg/mL (≈ 1.33 µM) | 0.5 µg/mL (≈ 1.33 µM) | 0.25 µg/mL (≈ 0.666 µM) | 1 µg/mL (≈ 2.66 µM) | 0.125 µg/mL (≈ 0.333 µM) | 2 µg/mL (≈ 5.33 µM) | 1 µg/mL (≈ 2.66 µM) | 2 µg/mL (≈ 5.33 µM) | 0.125 µg/mL (≈ 0.333 µM) | 0.125 µg/mL (≈ 0.333 µM) | 0.25 µg/mL (≈ 0.666 µM) | MIC (Escherichia coli; [13]): 0.125 µg/mL (≈ 0.333 µM)
2 | C#CCn1cc(C(=O)O)c(=O)c2cc(F)c(N3CCC(N)C3)c(F)c21 (racemic) [D] | 1 µg/mL (≈ 2.88 µM) | 2 µg/mL (≈ 5.76 µM) | 0.5 µg/mL (≈ 1.44 µM) | 8 µg/mL (≈ 23 µM) | 8 µg/mL (≈ 23 µM) | 4 µg/mL (≈ 11.5 µM) | 4 µg/mL (≈ 11.5 µM) | 4 µg/mL (≈ 11.5 µM) | 8 µg/mL (≈ 23 µM) | 8 µg/mL (≈ 23 µM) | 8 µg/mL (≈ 23 µM) | 1 µg/mL (≈ 2.88 µM) | 16 µg/mL (≈ 46.1 µM) | 0.5 µg/mL (≈ 1.44 µM) | 32 µg/mL (≈ 92.1 µM) | 0.06 µg/mL (≈ 0.173 µM) | 32 µg/mL (≈ 92.1 µM) | 1 µg/mL (≈ 2.88 µM) | 0.5 µg/mL (≈ 1.44 µM) | 2 µg/mL (≈ 5.76 µM) | MIC (Escherichia coli; [13]): 0.5 µg/mL (≈ 1.44 µM)
